Results published in ChEMBL document CHEMBL1134894, “Fused azaindole derivatives: molecular design, synthesis and in vitro pharmacology leading to the preferential dopamine D3 receptor agonist FAUC 725” (Bioorg Med Chem Lett, 2002).

Experiments:
D(4) dopamine receptor [1] = biological target: T1, D(4) dopamine receptor (Homo sapiens, UniProt P21917); assay: Effective concentration required for agonistic activity against human D4.2 receptor; format: functional
T1 sequence (P21917 whole entry): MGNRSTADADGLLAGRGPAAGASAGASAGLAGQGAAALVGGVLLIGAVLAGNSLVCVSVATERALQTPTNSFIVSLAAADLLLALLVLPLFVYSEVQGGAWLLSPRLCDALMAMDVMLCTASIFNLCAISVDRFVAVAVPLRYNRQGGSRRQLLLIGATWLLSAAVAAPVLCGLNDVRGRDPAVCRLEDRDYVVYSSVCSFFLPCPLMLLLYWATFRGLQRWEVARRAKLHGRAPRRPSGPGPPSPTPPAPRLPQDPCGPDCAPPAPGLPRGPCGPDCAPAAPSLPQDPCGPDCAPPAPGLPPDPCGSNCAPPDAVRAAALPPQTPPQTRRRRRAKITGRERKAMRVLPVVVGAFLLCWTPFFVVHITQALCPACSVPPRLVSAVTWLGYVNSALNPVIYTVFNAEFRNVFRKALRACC

D(4) dopamine receptor [2] = biological target: T1, D(4) dopamine receptor; assay: Binding affinity of compound measured using [3H]spiperone for the cloned human dopamine receptor D4.4 (high/low affinity is given as 16/1300)
D(2) dopamine receptor [3] = biological target: T2, D(2) dopamine receptor (Bos taurus, UniProt P20288); assay: Binding affinity of compound against Dopamine receptor D2 was measured using [3H]pramipexole in Bovine striatal membranes; format: cell membranes, Striatum, Membrane
D(2) dopamine receptor [4] = biological target: T3, D(2) dopamine receptor (Homo sapiens, UniProt P14416); assay: Binding affinity of compound measured using [3H]spiperone for the cloned human dopamine receptor D2 short (high/low affinity is given as 35/3700)
D(2) dopamine receptor [5] = biological target: T4, D(2) dopamine receptor (Rattus norvegicus, UniProt P61169); assay: Effective concentration required for agonistic activity against rat D2 short receptor; format: functional
D(2) dopamine receptor [6] = biological target: T3, D(2) dopamine receptor; assay: Binding affinity of compound measured using [3H]spiperone for the cloned human Dopamine receptor D2L (high/low affinity is given as 85/6400)
D(2) dopamine receptor [7] = biological target: T4, D(2) dopamine receptor; assay: Effective concentration required for agonistic activity against rat Dopamine receptor D2L; format: functional
D(4) dopamine receptor [8] = biological target: T1, D(4) dopamine receptor; assay: Binding affinity of compound measured using [3H]spiperone for the cloned human dopamine receptor D4.4 (high/low affinity is given as 50/2200)
D(3) dopamine receptor [9] = biological target: T5, D(3) dopamine receptor (Homo sapiens, UniProt P35462); assay: Effective concentration required for agonistic activity against human Dopamine receptor D3
D(3) dopamine receptor [10] = biological target: T5, D(3) dopamine receptor
D(1A) dopamine receptor = D(1A) dopamine receptor (Bos taurus, UniProt Q95136); assay: Binding affinity of compound measured against Dopamine receptor D1 from bovine striatal membranes using radioligand [3H]-SCH- 23390
D(2) dopamine receptor [11] = biological target: T3, D(2) dopamine receptor; assay: Binding affinity of compound measured using [3H]spiperone for the cloned human dopamine receptor D2 long (high/low affinity is given as 230/53000)
D(2) dopamine receptor [12] = biological target: T3, D(2) dopamine receptor; assay: Binding affinity of compound measured using [3H]spiperone for the cloned human dopamine receptor D2 short (high/low affinity is given as 130/50000)
D(2) dopamine receptor [13] = biological target: T4, D(2) dopamine receptor; assay: Effective concentration required for agonistic activity against rat D2 long receptor; format: functional
D(3) dopamine receptor [14] = biological target: T5, D(3) dopamine receptor; remark: listed apart in the source
Description: Binding affinity of compound measured using [3H]spiperone for the cloned human Dopamine receptor D3 (high/low affinity is given as 16/16000)

D(4) dopamine receptor [15] = biological target: T1, D(4) dopamine receptor; assay: Binding affinity of compound measured using [3H]spiperone for the cloned human dopamine receptor D4.4 (high/low affinity is given as 87/23000)
D(3) dopamine receptor [16] = biological target: T5, D(3) dopamine receptor; assay: Effective concentration required for agonistic activity against human D3 receptor; format: functional
D(2) dopamine receptor [17] = biological target: T2, D(2) dopamine receptor

T4 sequence (P61169 whole entry): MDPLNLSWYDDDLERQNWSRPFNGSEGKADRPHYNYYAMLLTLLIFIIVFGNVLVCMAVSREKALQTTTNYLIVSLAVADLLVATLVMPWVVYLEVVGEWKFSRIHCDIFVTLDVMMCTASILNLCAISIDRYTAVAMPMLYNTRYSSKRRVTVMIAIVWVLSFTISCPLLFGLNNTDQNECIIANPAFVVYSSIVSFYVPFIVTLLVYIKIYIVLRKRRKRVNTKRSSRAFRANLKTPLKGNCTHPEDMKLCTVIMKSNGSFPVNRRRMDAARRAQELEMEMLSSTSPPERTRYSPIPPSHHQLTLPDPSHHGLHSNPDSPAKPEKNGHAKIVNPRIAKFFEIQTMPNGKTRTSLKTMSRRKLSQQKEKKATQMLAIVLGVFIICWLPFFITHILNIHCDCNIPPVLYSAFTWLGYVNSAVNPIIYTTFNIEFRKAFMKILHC
T3 sequence (P14416 whole entry): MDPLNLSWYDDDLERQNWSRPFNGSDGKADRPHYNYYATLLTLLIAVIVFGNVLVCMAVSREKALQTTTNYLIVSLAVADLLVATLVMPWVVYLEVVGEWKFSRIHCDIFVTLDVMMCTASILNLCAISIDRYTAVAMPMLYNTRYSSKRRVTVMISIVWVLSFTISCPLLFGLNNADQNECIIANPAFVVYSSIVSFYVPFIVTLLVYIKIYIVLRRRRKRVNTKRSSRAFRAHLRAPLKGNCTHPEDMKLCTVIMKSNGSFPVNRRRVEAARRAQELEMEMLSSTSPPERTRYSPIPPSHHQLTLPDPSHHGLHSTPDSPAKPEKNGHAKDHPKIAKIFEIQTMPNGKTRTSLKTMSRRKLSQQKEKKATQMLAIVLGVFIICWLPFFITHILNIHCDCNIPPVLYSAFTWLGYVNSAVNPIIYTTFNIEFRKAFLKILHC
T5 sequence (P35462 whole entry): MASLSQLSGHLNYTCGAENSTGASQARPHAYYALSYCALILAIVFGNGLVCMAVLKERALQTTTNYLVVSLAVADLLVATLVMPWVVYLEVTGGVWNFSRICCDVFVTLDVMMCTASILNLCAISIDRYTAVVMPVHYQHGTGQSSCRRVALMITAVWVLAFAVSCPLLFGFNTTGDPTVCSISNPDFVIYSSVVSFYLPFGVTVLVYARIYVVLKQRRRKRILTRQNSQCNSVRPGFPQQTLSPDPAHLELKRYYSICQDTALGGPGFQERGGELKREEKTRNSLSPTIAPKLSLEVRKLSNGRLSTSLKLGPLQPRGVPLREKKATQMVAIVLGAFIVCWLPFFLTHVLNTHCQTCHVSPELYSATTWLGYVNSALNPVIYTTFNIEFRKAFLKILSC
T2 sequence (P20288 whole entry): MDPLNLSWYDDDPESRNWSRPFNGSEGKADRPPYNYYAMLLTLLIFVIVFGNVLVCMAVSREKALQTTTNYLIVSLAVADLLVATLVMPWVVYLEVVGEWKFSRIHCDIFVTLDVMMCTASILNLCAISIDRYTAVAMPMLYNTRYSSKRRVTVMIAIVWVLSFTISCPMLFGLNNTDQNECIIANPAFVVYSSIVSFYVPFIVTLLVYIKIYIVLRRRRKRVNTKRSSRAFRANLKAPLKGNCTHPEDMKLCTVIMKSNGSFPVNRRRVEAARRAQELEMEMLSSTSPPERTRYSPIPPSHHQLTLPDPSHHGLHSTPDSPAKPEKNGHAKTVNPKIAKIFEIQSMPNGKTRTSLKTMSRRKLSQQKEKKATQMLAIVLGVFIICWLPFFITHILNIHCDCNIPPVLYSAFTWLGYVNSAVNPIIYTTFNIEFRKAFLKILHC
Sequence of D(1A) dopamine receptor (Q95136 whole entry): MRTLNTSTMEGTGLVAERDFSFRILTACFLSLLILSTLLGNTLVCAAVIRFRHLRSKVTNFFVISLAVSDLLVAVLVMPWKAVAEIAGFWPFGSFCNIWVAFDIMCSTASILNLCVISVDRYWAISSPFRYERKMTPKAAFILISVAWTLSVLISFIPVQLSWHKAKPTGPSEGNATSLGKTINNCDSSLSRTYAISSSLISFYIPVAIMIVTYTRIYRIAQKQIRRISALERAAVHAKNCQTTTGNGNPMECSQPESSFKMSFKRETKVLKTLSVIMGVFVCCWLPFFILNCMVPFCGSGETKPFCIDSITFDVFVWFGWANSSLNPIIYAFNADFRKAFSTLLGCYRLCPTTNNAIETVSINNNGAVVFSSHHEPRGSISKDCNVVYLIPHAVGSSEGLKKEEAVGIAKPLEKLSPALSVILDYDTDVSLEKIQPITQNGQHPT

CCCN1CCC[C@@H](c2cccc(O)c2)C1 [PRECLAMOL]
EC50 (D(4) dopamine receptor [1]): 60 nM | Ki (D(4) dopamine receptor [2]): 16 nM | Ki (D(2) dopamine receptor [3]): 52 nM

CCCN(CCC)[C@H]1CCc2nn3ccccc3c2C1
Ki (D(2) dopamine receptor [4]): 35 nM | EC50 (D(2) dopamine receptor [5]): 47 nM | Ki (D(2) dopamine receptor [6]): 85 nM | EC50 (D(2) dopamine receptor [7]): 16 nM | Ki (D(4) dopamine receptor [8]): 50 nM | EC50 (D(4) dopamine receptor [1]): 430 nM | EC50 (D(3) dopamine receptor [9]): 2.8 nM | Ki (D(3) dopamine receptor [10]): 0.54 nM | Ki (D(1A) dopamine receptor): 18000 nM | Ki (D(2) dopamine receptor [3]): 8.6 nM

CCCN1CCc2nn3ccccc3c2C1
EC50 (D(2) dopamine receptor [5]): > 1000 nM | Ki (D(2) dopamine receptor [11]): 230 nM | EC50 (D(4) dopamine receptor [1]): > 1000 nM | Ki (D(2) dopamine receptor [12]): 130 nM | EC50 (D(2) dopamine receptor [13]): > 1000 nM | Ki (D(3) dopamine receptor [14]): 16 nM | Ki (D(4) dopamine receptor [15]): 87 nM | Ki (D(1A) dopamine receptor): 21000 nM | EC50 (D(3) dopamine receptor [16]): > 1000 nM | Ki (D(2) dopamine receptor [3]): 3100 nM

CCCN[C@H]1CCc2nc(N)sc2C1 [PRAMIPEXOLE]
Kd (D(2) dopamine receptor [17]): 1.6 nM
